According to US6379959B1, “Metalocarboxypeptidase inhibitors and derived molecules used as antitumor agents” (Universitat Autonoma de Barcelona, priority 1996, dated 2002):
Where “and” joins values, the source holds several entries; their conditions need not be identical. Equal entries are not always repeated. Positions of bridges follow the written chain, without caps; N, C: chain ends. No end group written: not given here.

Tests used:
[1] = target: EGF receptor (Homo sapiens, UniProt P00533); assay: Kinase activity (phosphorilation) of the EGF receptor, Capan-1 cells; assay type: cell-based; design: endogenous in cells; host or cells: Capan-1 (human pancreatic adenocarcinoma)
Experimental: The material and protocol used have been those described by Donato, N. J. et al. (1989) J. Cell. Biochem., 41: 139-157.
1.c. Wash the cells twice more with tempered PBS and add new serum-free medium. Immediately after, add PCI to the concentration which is going to be studied in the cultures to be treated and incubate for 10 min at 37° C.
2.a. […] Incubate for 1 h in ice.
3.a. Prepare the reaction buffer. Each sample requires 50μL.
3.k. Dry the gel (for at least 3 h) and autoradiograph it for 10 min for the A431 cell line and 2-4 h for the Capan-1 cell line. Count the radiactivity of the filter using a beta counter.

[2] = tested on: p53; assay: Gene expression analysis by Northern transfer, p53 probe; assay type: cell-based, human; conditions: for beta counts, p53 probe: 12 days, Capan-1 (control 138)
Experimental: To verify whether the PCI plays any role in signal transduction, studies of gene expression were carried out by Northern transfer. The probes were: β2-microglobulin, p53 and trypsin. The β2-microglobulin is a constitutive gene that is used as a sample loading control in the gel. p53 is a transcription factor which, among other functions, controls the state of the genomic DNA and the cell cycle (Bates, S. & Vousden, K. H. (1996) Curr. Opin. Genet. Develop., 6: 12-19). If the DNA is damaged, p53 induces its repair and, if it is excessively damaged, it provokes programmed cellular death (apoptosis). Trypsin is a marker of pancreatic cells of the acinar type. The trypsin is not expressed by all the tumoral cells and it is believed that it is expressed by the cells with metastatic power and/or invasive power (Fernández, E. et al., (1994) Cancer, 73: 2285-2295). The probes employed are described as follows:
In the first place, 3×10^6 cells of the human pancreatic adenocarcinoma cell line Capan-1 were placed in each one of the 12 flasks of 150 cm^2. […] They were maintained in culture for 12 days period, changing their medium every 4 days, adding fresh PCI. Once the treatment was completed, the cells were trypsinized and the sediment of the cells was kept at −80° C. Afterwards, the extraction of the RNA was carried out.
The quantifying of the hybridized filters with the respective probes was done using a Betascope 601 blot Analyzer counter (Betagen, USA). The counting time was 45 min for the hybridized filter with the probe p53 and β2-microglobuline and 2 h for the trypsin probe.
Assuming that the counts of the β2-Microglobuline are an indication of the total amount of poly(A^+) RNA, the data may be standardized as a percentage of counts of the band compared to the β2-microglobuline counts of the same cells, giving a value which depends on the abundance of the specific mRNA in relation to the total of mRNA.

[3] = tested on: Int-2 murine insulinoma cell line; assay: Proliferation of Int-2 cells pretreated with PCI; assay type: cell-based; conditions: pretreatment 50 μg/mL of PCI, 7, 20 and 30 days; treatments 7, 8 and 5 days
Experimental: The analysed cell lines were Capan-1, already described, and Int-2. This latter being a murine insulinoma cell line derived from transgenic mice developed in the lab of Dr. M. Frazier. The medium employed for the growth of both lines was DMEM+10%FBS and the culture techniques that were used were identical to those previously described. In the case of the Int-2 cell line, only proliferation tests were performed. They were carried out in the same way as that described in the case of Capan-1, with the unique difference that the number of cells that was put per well in the plate of 96 was 500 instead of 2,000.

[4] = tested on: mouse melanoma B16 cell line; assay: Metastasis test in vivo, liver metastatic focuses after intrasplenic B16 inoculation; design: species or system mice C57BL/6J; conditions: killed day 11 (control 32±7)
Experimental: In order to study the effect of the PCI on the metastatic capacity of the tumoral cells, mouse melanoma B16 cell line are used used because this line is singeneic with the mice. These cells, intrasplenically inoculated in singeneic mice, after 7 days, start to develop metastasis in the liver of the mouse. The following material was employed:
A control group: consisting of 5 mice to which 300,000 cells dissolved in 0.1 mL of alphaMEM-Hepes were inoculated. The mice, previously anaesthetized with nembutal, were inoculated by way of intrasplenic injection, by means of a little incision and subsequently closed with stitches. These mice were killed 11 days after injection of the tumoral cells by cervical dislocation.
Treatment 1: again, 5 mice were inoculated in the same way as those of the control group. Six days after the injection, a daily treatment with 0.1 mg/mL of PCI in 0.1, mL of PBS by way of intraperitoneal injection was started. The animals were also killed on the eleventh day after the injection.
Treatment 2: in this case, the cells inoculated to the mice (also 5 of them) were previously treated in vitro for 4 days in a concentration of 0.1 mg/mL of PCI. […]
Once killed, their liver was extracted. […] Afterwards, the sections were dyed with hematoxyline-eosine and the number of metastatic focuses was counted.

## PCI: potato carboxypeptidase inhibitor, isoform IIa, obtained by recombinant DNA techniques in E. coli (SEQ ID NO.2) (EQHADPICNKPCKTHDDCSGAWFCQACWNSARTCGPYVG; disulfide 12-27, 18-34, 8-24)
[1]; 5 ng/mL EGF + 1 mg/mL PCI
  Kinase activity (%): 180%
[1]; 5 ng/mL EGF + 10 mg/mL PCI
  Kinase activity (%): 170%
[1]; 5 ng/mL EGF + 50 mg/mL PCI
  Kinase activity (%): 120%
[1]; PCI concentration of 50 μg/mL
  inhibition of the kinase activity induced by EGF: 50%
[1]; basal, incubation with PCI 50 mg/mL, 10 min, 100% = absence of PCI
  Kinase activity (%): 70% and 88% and 90%
[2]; 1 mg/mL PCI
  higher transcription of p53 in relation to the control group cells (treatment/control): 2.8 times
  beta counts, p53 probe: 882
[2]; 1 mg/mL PCI (control 0.1445)
  p53/b2 (counts of one band in relation to those of β2-microglobuline): 0.4040
[2]; 10 mg/mL PCI
  higher transcription of p53 in relation to the control group cells (treatment/control): 1.2 times
  beta counts, p53 probe: 1111
[3]
  growth of pretreated cells cultured later in the absence of the protein compared to non-pretreated cells: approximately half
[4]; treatment 1: daily intraperitoneal 0.1 mg/mL of PCI in 0.1 mL PBS from day 6
  number of metastatic focuses in liver: 27 focuses
[4]; treatment 2: cells treated in vitro 4 days with 0.1 mg/mL of PCI before inoculation
  number of metastatic focuses in liver: 4±1 focuses
